This note sets out measurements from ChEMBL document CHEMBL1944632, “Synthesis, anti-HBV activity and renal cell toxicity evaluation of mixed phosphonate prodrugs of adefovir” (Eur J Med Chem, 2012).

The subject of data set [1] is Hepatitis B virus. Put plainly: Antiviral activity against Hepatitis B virus infected in human HepG2(2.2.15) cells assessed as inhibition of viral replication incubated for 2 days followed by wash out measured after 10 days by RT-PCR analysis. Type of data set: functional, organism-based.
A short description of data set [2]: Cytotoxicity against human HepG2(2.2.15) cells infected with HBV DNA. Type of data set: cell-based.
The nature of data set [3]: Cytotoxicity against human HK2 cells by MTT assay. Type of data set: cell-based, HK-2. (In general: Tetrazolium assays rely on reduction of a dye to a coloured formazan, in cell work by metabolically active cells.)
Data set [4] is described as follows: Nephrotoxicity in human HK2 cells assessed as LDH release at 1 uM measured after 24 hrs. Conditions: hk-2, 24 h. Type of data set: toxicity, cell-based.
Data set [5] can be described thus: Nephrotoxicity in human HK2 cells assessed as LDH release at 10 uM measured after 24 hrs. As to conditions: hk-2, 24 h. Type of data set: toxicity, cell-based.
The nature of data set [6]: Nephrotoxicity in human HK2 cells assessed as LDH release at 100 uM measured after 24 hrs. As to conditions: hk-2, 24 h. Type of data set: toxicity, cell-based.
Data set [7] is described as follows: Chemical stability of the compound assessed as drug decomposition at 1 mM in phosphate buffer at pH 2 after 24 hrs by HPLC analysis. Type of data set: physicochemical. Conditions: read-out: Drug degradation.
The nature of data set [8]: Chemical stability of the compound assessed as drug decomposition at 1 mM in phosphate buffer at pH 7.4 after 24 hrs by HPLC analysis. Type of data set: physicochemical. Conditions: read-out: Drug degradation.
Data set [9] is described as follows: Half life in rat plasma at 0.2 mg after 24 hrs by HPLC analysis. Type of data set: ADME.
Data set [10] in a line: Selectivity index, ratio of CC50 for HepG2(2.2.15) infected with HBV DNA to EC50 for Hepatitis B virus infected in human HepG2(2.2.15) cells.
Data set [11] has as its system Hepatitis B virus. Put plainly: Ratio of adefovir dipivoxil to compound EC50 for Hepatitis B virus infected in human HepG2(2.2.15) cells assessed as inhibition of viral replication incubated for 2 days followed by wash out measured after 10 days by RT-PCR analysis. The data set is classed as functional.
The nature of data set [12]: Ratio of adefovir dipivoxil SI to compound SI for ratio of CC50 for HepG2(2.2.15) infected with HBV DNA to EC50 for Hepatitis B virus infected in human HepG2(2.2.15) cells. The data set is classed as functional.

One may read the pEC50 as the negative decadic logarithm of the EC50, by convention in mol/L. The CC50 is the concentration giving 50% cytotoxicity. Read a high CC50 as lower toxicity to the cells. Usually half-life stands for the time needed for the level to fall by half in the phase considered. A low value points to rapid decline.

The structures appear in SMILES notation. pEC50: −log10 of the molar value.

Turning to `CC(C(=O)OCCCOP(=O)(COCCn1cnc2c(N)ncnc21)OCCOC(=O)[C@@H](N)Cc1ccccc1)c1ccc(-c2ccccc2)c(F)c1` (some centres not stated), the pEC50 in [1] is 5.48. For the same molecule, the CC50 in data set [2] came out at 568 µM; in [3], 906 µM. Also, the Activity in data set [4] is listed as 34.68%; in data set [5], 35.95%; in [6], 42.71%. Besides, the degraded at 24 h, 1000 µM in [7] turned out to be 14.7%; in data set [8], 10.3%. Besides, the half-life in [9] was 123 min. The “Ratio CC50/EC50” value in [10] is recorded as 170.21.

Regarding `CC(C)Cc1ccc(C(C)C(=O)OCCCOP(=O)(COCCn2cnc3c(N)ncnc32)OCCOC(=O)[C@@H](N)C(C)C)cc1` (some centres not stated), the pEC50 in data set [1] was 5.06. Further, the figures for the CC50 in data set [2] and in [3] were 577 µM and greater than 1000 µM, respectively. For the same molecule, the results for the Activity in data set [4], in [5] and in data set [6] were 35.41%, 36.25% and 36.87%, respectively. Further, the degraded at 24 h, 1000 µM came out at 9.6% in data set [7] and 7.8% in data set [8]. The molecule also gave a half-life in data set [9] of 90 min. In data set [10], the “Ratio CC50/EC50” value amounted to 65.56.

For `CC(C)(C)C(=O)OCOP(=O)(COCCn1cnc2c(N)ncnc21)OCOC(=O)C(C)(C)C` [ADEFOVIR DIPIVOXIL], the pEC50 in [1] is 6.02. Besides, the values for the CC50 in data set [2] and in [3] were 471 µM and 488 µM, respectively. The values for the Activity in data set [4], in data set [5] and in [6] were 42.32%, 47.49% and 50.02%, respectively. Moreover, the figures for the degraded at 24 h, 1000 µM in data set [7] and in data set [8] were 42.5% and 39.1%, respectively. For the same molecule, the half-life in data set [9] is 31.2 min. Also, in [10], the “Ratio CC50/EC50” value stood at 490.73.

As to `CC[C@H](C)[C@H](N)C(=O)OCCOP(=O)(COCCn1cnc2c(N)ncnc21)OCCCOC(=O)C(C)c1ccc(CC(C)C)cc1` (some centres not stated), the pEC50 in data set [1] was 4.90. The CC50 in [2] is 488 µM; in data set [3] it was greater than 1000 µM. Further, the Activity in data set [4] is on record as 36.25%; in data set [5], 36.67%; in data set [6] it was 40.6%. Also, the degraded at 24 h, 1000 µM in [7] is 12.7%; in data set [8], 9.1%. The half-life in data set [9] was 45 min. Besides, the “Ratio CC50/EC50” value in [10] came out at 39.11.

Take `CC[C@H](C)[C@H](N)C(=O)OCCOP(=O)(COCCn1cnc2c(N)ncnc21)OCCCOC(=O)C(C)c1ccc(-c2ccccc2)c(F)c1` (some centres not stated): in [1], the pEC50 was 5.65. Further, the CC50 in data set [2] is 677 µM; in data set [3] it was greater than 1000 µM. The Activity is reported as 35.89% in data set [4], 36.95% in [5] and 40.52% in data set [6]. Further, the results for the degraded at 24 h, 1000 µM in [7] and in data set [8] were 15.3% and 12.6%, respectively. The same molecule showed a half-life in data set [9] of 210 min. The “Ratio CC50/EC50” value in [10] is reported as 299.69.

In the case of `CC(C)Cc1ccc(C(C)C(=O)OCCCOP(=O)(COCCn2cnc3c(N)ncnc32)OCCCSC(=O)[C@@H](N)C(C)C)cc1` (some centres not stated), the pEC50 in [1] is 4.64. For the same molecule, in [2], the midpoint of cytotoxicity, the CC50, lay at 122 µM. The “Ratio CC50/EC50” value in [10] was 5.37.

On to `CC[C@H](C)[C@H](N)C(=O)SCCCOP(=O)(COCCn1cnc2c(N)ncnc21)OCCCOC(=O)C(C)c1ccc(-c2ccccc2)c(F)c1` (some centres not stated), for which the pEC50 in [1] was 4.43. Moreover, the CC50 in [2] stood at 363 µM. In [10], the “Ratio CC50/EC50” value was determined as 9.88.

For `CC[C@H](C)[C@H](N)C(=O)SCCCOP(=O)(COCCn1cnc2c(N)ncnc21)OCCCOC(=O)C(C)c1ccc(CC(C)C)cc1` (some centres not stated), the pEC50 in data set [1] is 4.30. Further, the CC50 in data set [2] was determined as 157 µM. The “Ratio CC50/EC50” value in data set [10] is listed as 3.14.

Turning to `CC[C@H](C)[C@H](N)C(=O)SCCCOP(=O)(COCCn1cnc2c(N)ncnc21)OCCCOC(=O)C(C)c1cccc(C(=O)c2ccccc2)c1` (some centres not stated), the pEC50 in data set [1] is 4.35. For the same molecule, the CC50 in [2] stood at 1000 µM. Besides, the “Ratio CC50/EC50” value in [10] is 22.29.

With `CC[C@H](C)[C@H](N)C(=O)OCCOP(=O)(COCCn1cnc2c(N)ncnc21)OCCCOC(=O)C(C)c1cccc(C(=O)c2ccccc2)c1` (some centres not stated), the pEC50 in data set [1] was 6.14. Also, the CC50 is 644 µM in [2] and 768 µM in data set [3]. The Activity in data set [4] worked out at 37.85%; in [5] it was 36.92%; in data set [6] it was 43.51%. Further, the degraded at 24 h, 1000 µM in data set [7] was 14.9%; in [8], 12.5%. For the same molecule, the “Ratio CC50/EC50” value in data set [10] is 881.92.

As to `CC(C(=O)OCCCOP(=O)(COCCn1cnc2c(N)ncnc21)OCCOC(=O)[C@@H](N)C(C)C)c1cccc(C(=O)c2ccccc2)c1` (some centres not stated), the pEC50 in data set [1] is 6.29. The CC50 in [2] was determined as 866 µM; in [3] it was 840 µM. Also, the Activity in data set [4] is 37.63%; in [5], 38.72%; in data set [6], 44.9%. Further, the degraded at 24 h, 1000 µM in data set [7] is 11.2%; in data set [8], 8.3%. The same molecule gave a half-life in data set [9] of 165 min. Moreover, the “Ratio CC50/EC50” value in data set [10] turned out to be 1697.64. The “Ratio EC50” value in data set [11] was 2. Also, in data set [12], the Ratio is on record as 4.

As for `CC(C(=O)OCCCOP(=O)(COCCn1cnc2c(N)ncnc21)OCCCSC(=O)[C@@H](N)Cc1ccccc1)c1ccc(-c2ccccc2)c(F)c1` (some centres not stated), the pEC50 in data set [1] was 4.31. This molecule also came in with a CC50 in data set [2] of 202 µM. For the same molecule, the “Ratio CC50/EC50” value in data set [10] amounted to 4.12.

As for `CC(C(=O)OCCCOP(=O)(COCCn1cnc2c(N)ncnc21)OCCCSC(=O)[C@@H](N)Cc1ccccc1)c1cccc(C(=O)c2ccccc2)c1` (some centres not stated), the pEC50 in data set [1] was 4.53. The same molecule gave a CC50 in data set [2] of 1000 µM. Also, in data set [10], the “Ratio CC50/EC50” value stood at 33.47.

`CC(C(=O)OCCCOP(=O)(COCCn1cnc2c(N)ncnc21)OCCCSC(=O)[C@@H](N)C(C)C)c1cccc(C(=O)c2ccccc2)c1` (some centres not stated): the pEC50 in data set [1] was 4.57. This molecule also showed a CC50 in data set [2] of 1050 µM. For the same molecule, the “Ratio CC50/EC50” value in [10] was determined as 39.01.
